Experimental data published in article PMC3402541, “Guanidylation and Tail Effects in Cationic Antimicrobial Lipopeptoids” (PLoS ONE, 2012).
Values after ≈ are worked out from the molar mass of the structure shown.

What was measured:
[1] = system: E.coli ATCC 25922; format: cell-based, Escherichia coli; details: ATCC 25922, Mueller-Hinton broth, 24 hr, 37°C, without replication; for MIC E.coli in the presence of 4% bovine serum albumin: 4% BSA added, macrobroth dilution; for MIC E.coli: CLSI macrobroth dilution, 5 x 10^5 CFU/mL
Method in brief: (§1)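 Read-out is the MIC after 24 hr incubation at 37°C in ambient air, determined by CLSI macrobroth dilution in cation-adjusted Mueller-Hinton broth with an inoculum near 5 × 10^5 CFU/mL; tested once.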

[2] = system: E.coli CAN-ICU 61714; format: cell-based, Escherichia coli; details: CAN-ICU 61714, Mueller-Hinton broth, 24 hr, 37°C, without replication; for MIC E.coli in the presence of 4% bovine serum albumin: 4% BSA added, macrobroth dilution; for MIC E.coli: CLSI macrobroth dilution, 5 x 10^5 CFU/mL
Method in brief: as §1

[3] = system: E.coli CAN-ICU 63074; format: cell-based, Escherichia coli; details: CAN-ICU 63074, Mueller-Hinton broth, 24 hr, 37°C, without replication; for MIC E.coli in the presence of 4% bovine serum albumin: 4% BSA added, macrobroth dilution; for MIC E.coli: CLSI macrobroth dilution, 5 x 10^5 CFU/mL
Method in brief: as §1

[4] = system: MSSE 81388 CANWARD 2008; format: cell-based, methicillin-susceptible S. epidermidis; details: 81388 CANWARD 2008, Mueller-Hinton broth, 24 hr, 37°C, without replication; for MIC MSSE in the presence of 4% bovine serum albumin: 4% BSA added, macrobroth dilution; for MIC MSSE: CLSI macrobroth dilution, 5 x 10^5 CFU/mL
Method in brief: as §1

[5] = system: Gram negative bacteria; assay: MIC with 4% BSA, summary over Gram negative strains; format: cell-based; details: 4% BSA added
Experimental: Antimicrobial activity of the purified lipopeptoids was determined without replication against a panel of clinically relevant and standard reference bacterial strains according to CLSI macrobroth standards. Stock solutions at 512 µg/mL were prepared in water, with DMSO as needed, and testing was performed in glass test tubes using Muller-Hinton broth and bacteria adjusted to 5 × 10^5 CFU/mL. Bacteria were incubated with the lipopeptoid of interest for 24 hr at 37°C prior to reading. […]
After subculturing the relevant bacteria twice from frozen stock, in vitro activities of the antimicrobials were determined by macrobroth dilution methodology in accordance with the Clinical and Laboratory Standards Institute (CLSI) guidelines (3). The MICs were determined using glass test tubes (2 mL/tube) containing doubling antimicrobial dilutions of cation adjusted Mueller-Hinton broth inoculated to achieve a final concentration of approximately 5 x 10^5 CFU/mL, incubated in ambient air for 24 hr prior to reading. […]

Compound | MIC E.coli in the presence of 4% bovine serum albumin [1] [µg/mL] | MIC E.coli [1] [µg/mL] | MIC E.coli in the presence of 4% bovine serum albumin [2] [µg/mL] | MIC E.coli [2] [µg/mL] | MIC E.coli in the presence of 4% bovine serum albumin [3] [µg/mL] | MIC E.coli [3] [µg/mL] | MIC MSSE in the presence of 4% bovine serum albumin [4] [µg/mL] | MIC MSSE [4] [µg/mL] | MIC against Gram negative bacteria with 4% BSA [5] [µg/mL]
NCCCCN(CC(N)=O)C(=O)CNC(=O)CN(CCCCN)C(=O)CCC(F)(F)C(F)(F)C(F)(F)C(F)(F)C(F)(F)C(F)(F)C(F)(F)C(F)(F)F [F11-NlysGNlys] | 512 | 512 (≈ 636 µM) | 512 | 512 (≈ 636 µM) | >512 | 512 (≈ 636 µM) | 128 | 32 (≈ 39.8 µM) | 
CCCCCCCCCCCCCCCC[N+](C)(C)C.[Cl-] [CTAC, Cetyltrimethylammonium chloride, reference compound] | 512 | 16 | 512 | 32 | 512 | 16 | 16 | 0.5 | ≥ 512
NCCCCN(CC(N)=O)C(=O)CN(CCCCN)C(=O)CN(CCCCN)C(=O)CCC(F)(F)C(F)(F)C(F)(F)C(F)(F)C(F)(F)C(F)(F)C(F)(F)C(F)(F)F [F11-NlysNlysNlys] | 256 | 64 (≈ 73.1 µM) | 256 | 64 (≈ 73.1 µM) | 512 | 128 (≈ 146 µM) | 128 | 32 (≈ 36.5 µM) | 
